Reference: patent US20250326748A1, “COMPOUNDS AND METHODS FOR MODULATING SPLICING” (REMIX THERAPEUTICS INC., priority 2022, published 2025)
Structures can show the parent of a compound that is named as a salt. Where two headings read alike, the source gives them in different places.

Key:
Type in all cases: cell-based, human
[1] = system: Target C mRNA; assay: Splicing RT-qPCR panel, Target C canonical junction (CJ) mRNA; details: Homo sapiens, read-out: Target C CJ (decrease in CJ mRNA levels, IC50)
Summary of the method: (§1)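 A673 cells (DMEM, 10% FBS) or K562 cells (IMDM, 10% FBS) treated 24 h at 37 °C with an 11-point 3-fold dilution, top 10 uM, DMSO ≤0.25%. Canonical-junction mRNA quantified in lysates by RT-qPCR, normalised to GAPDH, GUSB or PPIA and to DMSO (2^−ΔΔCt), then converted to % response.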

[2] = system: MYB mRNA; assay: Splicing RT-qPCR assay, MYB canonical (CJ) and alternative (AJ) junction mRNA; details: Homo sapiens; for IC50: canonical junction mRNA; for AC50: alternative junction mRNA, read-out: MYB AJ (AC50, increase in AJ mRNA)
Summary of the method: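 A673 or K562 cells were treated for 24 h at 37 °C with an 11-point 3-fold compound dilution series (top final 10 uM, DMSO ≤0.25%). Lysates then went to one-step TaqMan RT-qPCR quantifying canonical (CJ) and alternative-exon (AJ) junction transcripts, normalized to a housekeeping gene.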

[3] = system: SMN2 mRNA; assay: Splicing RT-qPCR panel, SMN2 canonical junction (CJ) mRNA; details: Homo sapiens, read-out: SMN2 CJ (decrease in CJ mRNA levels, IC50)
Summary of the method: as §1

[4] = qPCR panel, read-out: MYB CJ (decrease in CJ mRNA levels, IC50)
[5] = RT-qPCR, A673 or K562 cells, 24 hours treatment
[6] = RT-qPCR, A673 or K562 cells, 24 hours treatment, read-out: MYB CJ (IC50, decrease in CJ mRNA)

| Structure (SMILES) | IC50 [1] | IC50 [2, 4] | IC50 [2, 6] | IC50 [3] | AC50 [2, 5] |
| --- | --- | --- | --- | --- | --- |
| Cc1cn2cc(-c3cc(Cl)c4cc(N5C[C@@H](C)N[C@@H](C)C5)cnc4n3)cc(F)c2n1 [Compound 297] | > 10000 nM | 100 to 1000 nM | 100 to 1000 nM | < 100 nM | 100 to 1000 nM |
| Cc1c(O)c(-c2ccc3c(C(F)(F)F)c(N4CCNCC4)cnc3n2)cc2cn(C)nc12 [Compound 302, 2,7-dimethyl-5-[6-(piperazin-1-yl)-5-(trifluoromethyl)-1,8-naphthyridin-2-yl]indazol-6-ol] | > 10000 nM | 100 to 1000 nM | 100 to 1000 nM | 100 to 1000 nM | 100 to 1000 nM |
| CN1CCC[C@@H]2CN(c3cnc4nc(-c5cc6cn(C)nc6c(F)c5O)cc(Cl)c4c3)C[C@@H]21 [Compound 303] | > 10000 nM | 100 to 1000 nM | 100 to 1000 nM | < 100 nM | 100 to 1000 nM |
| CN1CCC[C@H]2CN(c3cnc4nc(-c5cc6cn(C)nc6c(F)c5O)cc(Cl)c4c3)C[C@H]21 [Compound 304] | > 10000 nM | 100 to 1000 nM | 100 to 1000 nM | < 100 nM | 100 to 1000 nM |
| C[C@@H]1CN(c2cnc3nc(-c4cc5cn(C)nc5c(F)c4O)cc(C4CC4)c3c2)C[C@H](C)N1 [Compound 305, 5-{4-cyclopropyl-6-[(3R,5S)-3,5-dimethylpiperazin-1-yl]-1,8-naphthyridin-2-yl}-7-fluoro-2-methylindazol-6-ol] | > 10000 nM | 100 to 1000 nM | 100 to 1000 nM | < 100 nM | 100 to 1000 nM |
| Cn1cc2cc(-c3ccc4cc(N5CC[C@H](NCC6CC6)C5)cnc4n3)c(O)cc2n1 [Compound 314] | 1000 to 10000 nM | 100 to 1000 nM | 100 to 1000 nM | < 100 nM | 100 to 1000 nM |
| CN(C)C1CCN(c2cnc3nc(-c4cc5cn(C)nc5cc4O)ccc3c2)CC1 [Compound 316] | 1000 to 10000 nM | 100 to 1000 nM | 100 to 1000 nM | < 100 nM | 100 to 1000 nM |
| CCN[C@H]1CCN(c2cnc3nc(-c4cc5cn(C)nc5cc4O)cc(Cl)c3c2)C1 [Compound 318] | 1000 to 10000 nM | < 100 nM | < 100 nM | < 100 nM | < 100 nM |
| C[C@@H]1CN(c2cnc3nc(-c4ccc5nn(C)cc5c4)cc(Cl)c3c2)C[C@H](C)N1 [Compound 320, 4-chloro-6-[(3R,5S)-3,5-dimethylpiperazin-1-yl]-2-(2-methylindazol-5-yl)-1,8-naphthyridine] | > 10000 nM | 1000 to 10000 nM | 1000 to 10000 nM | < 100 nM | 1000 to 10000 nM |
| C[C@@H]1CN(c2cnc3nc(-c4cc(C#N)c5nn(C)cc5c4)cc(Cl)c3c2)C[C@H](C)N1 [Compound 325, 5-(4-chloro-6-((3R,5S)-3,5-dimethylpiperazin-1-yl)-1,8-naphthyridin-2-yl)-2-methyl-2H-indazole-7-carbonitrile 2,2,2-trifluoroacetate] | > 10000 nM | 100 to 1000 nM | 100 to 1000 nM | < 100 nM | 1000 to 10000 nM |
| Cc1cn2nc(-c3cc(Cl)c4cc(N5C[C@@H](C)N[C@@H](C)C5)cnc4n3)cc(C)c2n1 [Compound 335, 4-chloro-2-{2,8-dimethylimidazo[1,2-b]478pyridazine-6-yl}-6-[(3R,5S)-3,5-dimethylpiperazin-1-yl]-1,8-naphthyridine] | 1000 to 10000 nM | 100 to 1000 nM | 100 to 1000 nM | < 100 nM | 100 to 1000 nM |
| CN[C@H]1CCN(c2cnc3nc(-c4cc(C)c5nc(C)cn5n4)cc(Cl)c3c2)C1 [Compound 340] | 1000 to 10000 nM | < 100 nM | < 100 nM | < 100 nM | 100 to 1000 nM |
| C[C@@H]1CN(c2cnc3nc(-c4cc5cn(C)nc5cc4O)ccc3c2)C[C@H](C)N1 [Compound 343] | 1000 to 10000 nM | 100 to 1000 nM | 100 to 1000 nM | < 100 nM | 100 to 1000 nM |
| Cc1cn2nc(-c3cc(Cl)c4cc(N5CCC(N(C)C)CC5)cnc4n3)cc(C)c2n1 [Compound 348] | 1000 to 10000 nM | 100 to 1000 nM | 100 to 1000 nM | < 100 nM | 100 to 1000 nM |
| Cc1cn2cc(-c3ccc4cc(N5C[C@@H](C)N[C@@H](C)C5)cnc4n3)cc(F)c2n1 [Compound 350] | > 10000 nM | 100 to 1000 nM | 100 to 1000 nM | 100 to 1000 nM | 1000 to 10000 nM |

Continued, in another order:

| IC50 [1] | IC50 [2, 4] | IC50 [2, 6] | IC50 [3] | Structure (SMILES) | AC50 [2, 5] |
| --- | --- | --- | --- | --- | --- |
| 1000 to 10000 nM | 100 to 1000 nM | 100 to 1000 nM | < 100 nM | Cc1c(O)c(-c2cc(Cl)c3cc(N(C)[C@H]4CCNC4)cnc3n2)cc2cn(C)nc12 [Compound 294] | 100 to 1000 nM |
| 1000 to 10000 nM | < 100 nM | < 100 nM | < 100 nM | C[C@@H]1CN(c2cnc3nc(-c4cc(F)c5nn(C)cc5c4)cc(Cl)c3c2)CCN1 [Compound 295, 4-chloro-2-(7-fluoro-2-methylindazol-5-yl)-6-[(3R)-3-methylpiperazin-1-yl]-1,8-naphthyridine] | 100 to 1000 nM |
| 1000 to 10000 nM | < 100 nM | < 100 nM | < 100 nM | C[C@H]1CN(c2cnc3nc(-c4cc(F)c5nn(C)cc5c4)cc(Cl)c3c2)CCN1 [Compound 296] | 100 to 1000 nM |
| 100 to 1000 nM | < 100 nM | < 100 nM | < 100 nM | CCN[C@@H]1CCN(c2cnc3nc(-c4cc5cn(C)nc5cc4O)ccc3c2)C1 [Compound 310, 5-{6-[(3R)-3-(ethylamino)468pyrrolidine-1-yl]-1,8-naphthyridin-2-yl}-2-methylindazol-6-ol hydrochloride] | < 100 nM |
| 1000 to 10000 nM | 100 to 1000 nM | 100 to 1000 nM | < 100 nM | CCN[C@H]1CCN(c2cnc3nc(-c4cc5cn(C)nc5cc4O)ccc3c2)C1 [Compound 311, 5-{6-[(3S)-3-(ethylamino)pyrrolidin-1-yl]-1,8-naphthyridin-2-yl}-2-methylindazol-6-ol hydrochloride] | 100 to 1000 nM |
| 100 to 1000 nM | 100 to 1000 nM | 100 to 1000 nM | < 100 nM | Cn1cc2cc(-c3ccc4cc(N5CC[C@@H](NCC6CC6)C5)cnc4n3)c(O)cc2n1 [Compound 313] | < 100 nM |
| < 100 nM | < 100 nM | < 100 nM | < 100 nM | CCN[C@@H]1CCN(c2cnc3nc(-c4cc5cn(C)nc5cc4O)cc(Cl)c3c2)C1 [Compound 317] | < 100 nM |
| 100 to 1000 nM | 100 to 1000 nM | 100 to 1000 nM | < 100 nM | Cc1cn2nc(-c3ccc4cc(N5C[C@@H](C)N[C@@H](C)C5)cnc4n3)cc(C)c2n1 [Compound 330] | 100 to 1000 nM |
| 100 to 1000 nM | < 100 nM | < 100 nM | < 100 nM | CN[C@@H]1CCN(c2cnc3nc(-c4cc(C)c5nc(C)cn5n4)cc(Cl)c3c2)C1 [Compound 341] | < 100 nM |
| 100 to 1000 nM | 100 to 1000 nM | 100 to 1000 nM | < 100 nM | Cc1cn2nc(-c3cc(Cl)c4cc(N5CCC(N6CCC6)CC5)cnc4n3)cc(C)c2n1 [Compound 349] | 100 to 1000 nM |
